The test deals with ROCK2 (human) (UniProt O75116). Kind of test: Inhibition of ROCK2 Kinase Activity.
ROCK2 (human), sequence (O75116 whole entry, looked up): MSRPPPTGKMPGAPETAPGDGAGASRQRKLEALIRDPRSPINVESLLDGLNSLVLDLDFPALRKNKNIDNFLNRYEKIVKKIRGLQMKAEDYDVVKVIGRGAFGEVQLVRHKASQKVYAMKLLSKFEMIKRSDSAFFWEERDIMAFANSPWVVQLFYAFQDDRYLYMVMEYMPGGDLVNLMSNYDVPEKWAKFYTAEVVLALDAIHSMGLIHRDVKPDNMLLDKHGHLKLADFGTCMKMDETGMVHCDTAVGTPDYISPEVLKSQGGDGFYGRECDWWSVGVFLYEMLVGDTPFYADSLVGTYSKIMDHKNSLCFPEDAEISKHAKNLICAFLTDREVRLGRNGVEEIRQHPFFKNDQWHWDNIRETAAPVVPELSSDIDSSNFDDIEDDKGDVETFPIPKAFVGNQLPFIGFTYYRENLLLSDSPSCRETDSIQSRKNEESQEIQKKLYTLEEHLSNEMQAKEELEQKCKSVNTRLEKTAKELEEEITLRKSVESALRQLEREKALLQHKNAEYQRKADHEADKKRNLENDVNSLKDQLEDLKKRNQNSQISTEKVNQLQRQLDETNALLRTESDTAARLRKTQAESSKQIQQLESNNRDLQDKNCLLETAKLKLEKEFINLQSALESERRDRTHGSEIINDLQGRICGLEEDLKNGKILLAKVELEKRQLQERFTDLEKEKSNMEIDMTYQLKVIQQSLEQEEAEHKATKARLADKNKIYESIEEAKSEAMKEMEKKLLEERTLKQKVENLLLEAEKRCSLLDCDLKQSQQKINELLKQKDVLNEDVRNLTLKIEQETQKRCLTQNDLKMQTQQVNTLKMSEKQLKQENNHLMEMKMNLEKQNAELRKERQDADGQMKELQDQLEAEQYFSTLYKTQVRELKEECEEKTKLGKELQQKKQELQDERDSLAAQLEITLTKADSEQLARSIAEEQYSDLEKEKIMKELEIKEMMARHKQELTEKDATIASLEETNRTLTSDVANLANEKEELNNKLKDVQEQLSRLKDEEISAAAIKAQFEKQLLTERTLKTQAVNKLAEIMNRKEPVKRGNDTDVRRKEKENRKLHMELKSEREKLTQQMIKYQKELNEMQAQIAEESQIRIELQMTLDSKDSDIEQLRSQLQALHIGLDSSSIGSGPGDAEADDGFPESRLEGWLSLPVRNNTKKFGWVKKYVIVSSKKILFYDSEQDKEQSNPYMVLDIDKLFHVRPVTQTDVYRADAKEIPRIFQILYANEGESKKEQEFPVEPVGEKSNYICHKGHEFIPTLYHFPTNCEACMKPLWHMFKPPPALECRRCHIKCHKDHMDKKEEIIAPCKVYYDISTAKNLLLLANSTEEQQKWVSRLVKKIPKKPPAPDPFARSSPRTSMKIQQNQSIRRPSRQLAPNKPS

Regarding `O=C(NCc1nc(-c2c[nH]c3ncccc23)n[nH]1)c1cccc2ccccc12`, the IC50 is greater than 5 µM.
In the case of `Cc1cc(C(=O)NCc2nc(-c3c[nH]c4ncccc34)n[nH]2)n[nH]1` it was greater than 5 µM.
`O=C(NCc1nc(-c2ccncc2)n[nH]1)c1ccc2ccccc2c1O`: the IC50 is no more than 5 µM.
`O=C(NCc1nc(-c2c[nH]c3ncccc23)n[nH]1)C1CCc2ccccc21` (centres undefined) came in with a concentration for half-maximal inhibition (IC50) greater than 5 µM.
The figure for `CC(O)C(=O)NCc1nc(-c2c[nH]c3ncccc23)n[nH]1` (centres undefined) is greater than 5 µM.
The figure for `CC(NC(=O)OC(C)(C)C)C(=O)NCc1nc(-c2ccncc2)n[nH]1` (centres undefined) is greater than 5 µM; for `CCN(CC)c1ccc(C(=O)NCc2nc(-c3c[nH]c4ncccc34)n[nH]2)cc1` it is greater than 5 µM.
In turn, `O=C(NCc1nc(-c2ccncc2)n[nH]1)c1cc2ccccc2o1` had a half-inhibitory concentration (IC50) greater than 5 µM.
`Cc1ccc(C(=O)NCc2nc(-c3c[nH]c4ncccc34)n[nH]2)cc1F` had an IC50 greater than 5 µM.
Compound `O=C(CCc1nc2ccccc2[nH]1)NCc1nc(-c2c[nH]c3ncccc23)n[nH]1` showed a half-maximal inhibitory concentration (IC50) greater than 5 µM.
Compound `CCC(C)C(NC(=O)OC(C)(C)C)C(=O)NCc1nc(-c2ccncc2)n[nH]1` (centres undefined) came in with an IC50 greater than 5 µM.
In the case of `CC(C)c1ccc(C(=O)NCc2nc(-c3c[nH]c4ncccc34)n[nH]2)cc1` it was greater than 5 µM; in that of `O=C(CCc1ccccc1Br)NCc1nc(-c2ccncc2)n[nH]1`, greater than 5 µM.
With `O=C(NCc1nc(-c2c[nH]c3ncccc23)n[nH]1)C1=CCCC1`, the IC50 is greater than 5 µM.
The figure for `O=C(C=Cc1ccc(Cl)cc1)NCc1nc(-c2ccncc2)n[nH]1` is greater than 5 µM.
In the case of `CC(=O)c1cccc(C(=O)NCc2nc(-c3c[nH]c4ncccc34)n[nH]2)c1` it was greater than 5 µM; in that of `Cc1ccccc1C(=O)NCc1nc(-c2ccncc2)n[nH]1`, greater than 5 µM.
In the case of `O=C(NCc1nc(-c2ccncc2)no1)c1cccs1`, the half-inhibitory concentration (IC50) is greater than 5 µM.
In the case of `CCOc1ccc2ccccc2c1C(=O)NCc1nc(-c2ccncc2)n[nH]1` it was greater than 5 µM; in that of `Cc1cccc(C(=O)NCc2nc(-c3c[nH]c4ncccc34)n[nH]2)c1[N+](=O)[O-]`, greater than 5 µM; in that of `O=C(NCc1nc(-c2c[nH]c3ncccc23)n[nH]1)c1ccc([N+](=O)[O-])cc1Cl`, greater than 5 µM.
In the case of `O=C(NCc1nc(-c2ccncc2)n[nH]1)c1cccc2ccccc12` it was greater than 5 µM; in that of `O=C(NCc1nc(-c2ccncc2)n[nH]1)c1cncc(Br)c1`, greater than 5 µM.
The figure for `O=C(NCc1nc(-c2c[nH]c3ncccc23)n[nH]1)c1ccc2ncccc2c1` is greater than 5 µM; for `COc1ccc([N+](=O)[O-])c(C(=O)NCc2nc(-c3ccncc3)n[nH]2)c1` it is greater than 5 µM; for `COC1=C(O)C=CC(C=CC(=O)NCc2nc(-c3c[nH]c4ncccc34)n[nH]2)=CC1` it is greater than 5 µM.
Consider `O=C(NCc1nc(-c2c[nH]c3ncccc23)n[nH]1)c1ccc2ccccc2c1O`, for which the concentration for half-maximal inhibition (IC50) was greater than 5 µM.
The figure for `CCCc1ccc(C(=O)NCc2nc(-c3c[nH]c4ncccc34)n[nH]2)cc1` is greater than 5 µM.
As to `O=C(NCc1nc(-c2ccncc2)n[nH]1)c1nccs1`, the IC50 was no more than 5 µM.
The compound `O=C(NCc1nc(-c2c[nH]c3ncccc23)n[nH]1)c1ccc(Cl)cc1Cl` came in with an IC50 greater than 5 µM.
The compound `COc1ccc(OC)c(C(=O)NCc2nc(-c3ccncc3)n[nH]2)c1` displayed an IC50 greater than 5 µM.
The figure for `O=C(NCc1nc(-c2c[nH]c3ncccc23)n[nH]1)c1cc(Cl)ccc1O` is greater than 5 µM; for `CCOC(=O)CC(=O)NCc1nc(-c2c[nH]c3ncccc23)n[nH]1` it is greater than 5 µM; for `CC(NC(=O)c1ccc(O)cc1O)c1nc(-c2ccncc2)n[nH]1` (centres undefined) it is no more than 5 µM.
The figure for `CC(NC(=O)c1cccs1)c1nc(-c2ccncc2)n[nH]1` (centres undefined) is no more than 5 µM.
In the case of `Cc1ccc(F)cc1C(=O)NCc1nc(-c2ccncc2)n[nH]1` it was greater than 5 µM; in that of `O=C(NCc1nc(-c2c[nH]c3ncccc23)n[nH]1)c1cnc[nH]1`, greater than 5 µM.
Compound `O=C(NCc1nc(-c2c[nH]c3ncccc23)n[nH]1)c1cccc([N+](=O)[O-])c1` had a concentration for half-maximal inhibition (IC50) greater than 5 µM.
The figure for `CN(Cc1nc(-c2ccncc2)n[nH]1)C(=O)c1cccs1` is greater than 5 µM; for `O=C(NCc1nc(-c2c[nH]c3ncccc23)n[nH]1)c1ccc(C(F)(F)F)cc1[N+](=O)[O-]` it is greater than 5 µM.
For `O=C(NCc1nc(-c2c[nH]c3ncccc23)n[nH]1)c1c2ccccc2cc2ccccc12`, the concentration for half-maximal inhibition (IC50) was greater than 5 µM.
For the compound `O=C(NCc1nc(-c2c[nH]c3ncccc23)n[nH]1)c1c(F)cccc1F`, the half-inhibitory concentration (IC50) is greater than 5 µM.
`COc1cc(C(=O)NCc2nc(-c3ccncc3)n[nH]2)c([N+](=O)[O-])cc1OC` had a 50% inhibitory concentration (IC50) greater than 5 µM.
`CC(=O)NC(Cc1ccc(O)cc1)C(=O)NCc1nc(-c2ccncc2)n[nH]1` (centres undefined) gave an IC50 greater than 5 µM.
For `O=C(Cc1ccccc1)NCc1nc(-c2c[nH]c3ncccc23)n[nH]1`, the IC50 was greater than 5 µM.
In the case of `O=C(NCc1nc(-c2ccncc2)n[nH]1)c1ccccc1Cl` it was greater than 5 µM; in that of `Cc1ccccc1C(=O)NCc1nc(-c2c[nH]c3ncccc23)n[nH]1`, greater than 5 µM; in that of `COc1cc(C(=O)NCc2nc(-c3ccncc3)n[nH]2)cc(OC)c1O`, greater than 5 µM.
Turning to `CC(C)(C)OC(=O)N1CCNC(C(=O)NCc2nc(-c3c[nH]c4ncccc34)n[nH]2)C1` (centres undefined), the concentration for half-maximal inhibition (IC50) is greater than 5 µM.
`COc1cc(C=CC(=O)NCc2nc(-c3ccncc3)n[nH]2)ccc1O` came in with a half-maximal inhibitory concentration (IC50) greater than 5 µM.
For the compound `CC1=NN(c2ccc(C(=O)NCc3nc(-c4c[nH]c5ncccc45)n[nH]3)cc2)C(=O)C1`, the half-inhibitory concentration (IC50) is greater than 5 µM.
In the case of `c1ccc(COc2ccc(CNCc3nc(-c4ccncc4)n[nH]3)cc2)cc1` it was greater than 5 µM.
`O=C(NCc1nc(-c2c[nH]c3ncccc23)n[nH]1)c1cccc(Oc2ccccc2)c1` displayed a 50% inhibitory concentration (IC50) greater than 5 µM.
In the case of `O=C(NCc1nc(-c2c[nH]c3ncccc23)n[nH]1)c1cccc(F)c1F` it was greater than 5 µM; in that of `O=C(NCc1nc(-c2ccncc2)n[nH]1)c1ccc(Br)cc1`, greater than 5 µM.
The figure for `Cc1cc(C)c(C(=O)NCc2nc(-c3c[nH]c4ncccc34)n[nH]2)c(C)c1` is greater than 5 µM; for `O=C(NCc1nc(-c2ccncc2)n[nH]1)C1CCCCC1` it is greater than 5 µM; for `Cc1csc(C(=O)NCc2nc(-c3ccncc3)n[nH]2)c1` it is no more than 5 µM.
Consider `CC(C)Cc1ccc(C(C)C(=O)NCc2nc(-c3ccncc3)n[nH]2)cc1` (centres undefined), for which the half-maximal inhibitory concentration (IC50) was greater than 5 µM.
The figure for `Cc1cccc([N+](=O)[O-])c1C(=O)NCc1nc(-c2c[nH]c3ncccc23)n[nH]1` is greater than 5 µM; for `O=C(CCc1ccccc1O)NCc1nc(-c2c[nH]c3ncccc23)n[nH]1` it is greater than 5 µM; for `O=C(NCc1nc(-c2ccncc2)n[nH]1)c1cc(F)c(F)cc1Cl` it is greater than 5 µM.
On to `Cc1c(C(=O)NCc2nc(-c3c[nH]c4ncccc34)n[nH]2)cccc1[N+](=O)[O-]`, for which the IC50 is greater than 5 µM.
On to `O=C(NCc1nc(-c2c[nH]c3ncccc23)n[nH]1)c1ccc(I)cc1`, for which the IC50 was greater than 5 µM.
The figure for `COc1cc(C(=O)NCc2nc(-c3c[nH]c4ncccc34)n[nH]2)c([N+](=O)[O-])cc1OC` is greater than 5 µM.
In the case of `Cc1c(C(=O)NCc2nc(-c3ccncc3)n[nH]2)oc2ccccc12` it was greater than 5 µM; in that of `Cc1cccc(C(=O)NCc2nc(-c3ccncc3)n[nH]2)c1C`, greater than 5 µM; in that of `CC(C)Oc1ccc(C(=O)NCc2nc(-c3c[nH]c4ncccc34)n[nH]2)cc1`, greater than 5 µM.
In the case of `O=C(NCc1nc(-c2c[nH]c3ncccc23)n[nH]1)c1ccc(Br)cc1` it was greater than 5 µM.
`O=C(NCc1nc(-c2ccncc2)n[nH]1)c1ccc(Cl)cc1O` returned a half-maximal inhibitory concentration (IC50) greater than 5 µM.
Regarding `CC(C)(C)c1ccc(C(=O)NCc2nc(-c3c[nH]c4ncccc34)n[nH]2)cc1`, the 50% inhibitory concentration (IC50) is greater than 5 µM.
The figure for `CC(C)(C)OC(=O)N1CCCCC1C(=O)NCc1nc(-c2c[nH]c3ncccc23)n[nH]1` (centres undefined) is greater than 5 µM; for `O=C(C=Cc1ccc2c(c1)OCO2)NCc1nc(-c2c[nH]c3ncccc23)n[nH]1` it is greater than 5 µM; for `CC(C)C(C(=O)NCc1nc(-c2ccncc2)n[nH]1)N(C)C(=O)OC(C)(C)C` (centres undefined) it is greater than 5 µM.
Compound `O=Cc1ccccc1C(=O)NCc1nc(-c2c[nH]c3ncccc23)n[nH]1` showed a half-maximal inhibitory concentration (IC50) greater than 5 µM.
The figure for `O=S(=O)(NCc1nc(-c2ccncc2)n[nH]1)c1ccc(O)cc1` is greater than 5 µM; for `O=C(O)c1ccc(C(=O)NCc2nc(-c3ccncc3)n[nH]2)cc1` it is no more than 5 µM.
In the case of `O=C(NCc1nc(-c2ccncc2)n[nH]1)C(F)(F)F` it was greater than 5 µM; in that of `CC(C)(C)OC(=O)NC(Cc1ccc(O)cc1)C(=O)NCc1nc(-c2ccncc2)n[nH]1` (centres undefined), greater than 5 µM.
Consider `CCC(C(=O)NCc1nc(-c2c[nH]c3ncccc23)n[nH]1)c1ccccc1` (centres undefined), for which the 50% inhibitory concentration (IC50) was greater than 5 µM.
In turn, `O=C(NCc1nc(-c2ccncc2)n[nH]1)c1cnc(O)c(Cl)c1` showed a half-inhibitory concentration (IC50) greater than 5 µM.
The figure for `CC(=O)c1ccccc1C(=O)NCc1nc(-c2ccncc2)n[nH]1` is greater than 5 µM.
The figure for `O=C(NCc1nc(-c2c[nH]c3ncccc23)cs1)c1cccs1` is no more than 5 µM.
In the case of `O=C(NCc1nc(-c2ccncc2)n[nH]1)c1ccccc1[N+](=O)[O-]` it was greater than 5 µM.
In turn, `c1ccc2c(NCc3nc(-c4ccncc4)n[nH]3)ncnc2c1` yielded a 50% inhibitory concentration (IC50) greater than 5 µM.
The figure for `O=C(NCc1nc(-c2ccncc2)n[nH]1)c1cccnc1` is greater than 5 µM; for `CCC(C)C(NC(=O)OC(C)(C)C)C(=O)NCc1nc(-c2c[nH]c3ncccc23)n[nH]1` (centres undefined) it is greater than 5 µM.
Consider `COc1cccc(C(=O)NCc2nc(-c3ccncc3)n[nH]2)c1`, for which the IC50 was greater than 5 µM.
The figure for `O=C(NCc1nc(-c2c[nH]c3ncccc23)n[nH]1)c1cccs1` is no more than 5 µM; for `CCOc1ccccc1C(=O)NCc1nc(-c2ccncc2)n[nH]1` it is greater than 5 µM.
In the case of `O=C(Cc1c(F)cccc1F)NCc1nc(-c2ccncc2)n[nH]1` it was greater than 5 µM.
`COc1ccc(O)c(C(=O)NCc2nc(-c3ccncc3)n[nH]2)c1`: the IC50 was no more than 5 µM.
In the case of `COc1cccc(C(=O)NCc2nc(-c3c[nH]c4ncccc34)n[nH]2)c1OC` it was greater than 5 µM; in that of `O=C(NCc1nc(-c2c[nH]c3ncccc23)n[nH]1)c1c(F)cccc1Cl`, greater than 5 µM.

The record behind these values is the Kinase Knowledgebase extract (Sharma et al. 2016).
